Values of other authors in US11122828B2, “Microbial compositions comprising ellagitannin and methods of use” (MarvelBiome, Inc., priority 2018, dated 2021).
Read-outs that look alike come from different tables or passages of the source.

How the values were obtained:
[1] = plasma concentration up to micromolar (μM) levels
[2] = system: inflammatory markers including inducible nitric oxide synthase, cycloxygenase-2 (COX-2), prostaglandin E synthase and prostaglandin E2; conditions: rat colitis model
colon cancer cells = conditions: in vitro

## O=c1oc2cc(O)ccc2c2ccc(O)cc12 [urolithin A, 3,8-dihydroxyurolithin]
[1]
  toxic effects in vivo: without any apparent toxic effects
[2]
  inflammatory markers in colonic mucosa: decrease inflammatory markers
Colon cancer cells
  proliferation of colon cancer cells: inhibit proliferation

## anthocyanins
In vivo
  bioavailability: 0.3%

## isoflavones
estimated, phenols
  bioavailability: 43%
